In ChEMBL document CHEMBL5055617, “Conformational Constraint between Aromatic Residue Side Chains in the "Message" Sequence of the Peptide Arodyn Using Ring Closing Metathesis Results in a Potent and Selective Kappa Opioid Receptor Antagonist” (J Med Chem, 2021):
Square brackets hold non-standard residues; d marks the D form. Peptide text beside a SMILES is read from it.

Assays:
[1] = target: T1, Kappa-type opioid receptor (Homo sapiens, UniProt P41145); experiment: Displacement of [3H]-Diprenorphine from kappa opiod receptor (unknown origin) expressed in CHO cells incubated for 90 mins in presence of peptidase inhibitors; type: cell-based
Mu-type opioid receptor = Mu-type opioid receptor (Homo sapiens, UniProt P35372); experiment: Displacement of [3H]-DAMGO from mu opioid receptor (unknown origin) expressed in CHO cells incubated for 90 mins in presence of peptidase inhibitors; type: cell-based
Homo sapiens = species on record: Homo sapiens; experiment: Selectivity index, ratio of Ki for displacement of [3H]-DAMGO from MOR (unknown origin) expressed in CHO cells to Ki for displacement of [3H]-Diprenorphine from KOR (unknown origin) expressed in CHO cells; type: cell-based
[2] = target: T1, Kappa-type opioid receptor; experiment: Antagonist activity at kappa opioid receptor (unkown origin) expressed in CHO cell membranes assessed as inhibition of Dyn A-(1-13)NH2 stimulated [35S]GTPgammaS binding incubated for 90 mins by liquid scintillation counting method; type: functional; conditions: Membrane, filed as antagonist

Sequence of Mu-type opioid receptor (P35372 whole entry): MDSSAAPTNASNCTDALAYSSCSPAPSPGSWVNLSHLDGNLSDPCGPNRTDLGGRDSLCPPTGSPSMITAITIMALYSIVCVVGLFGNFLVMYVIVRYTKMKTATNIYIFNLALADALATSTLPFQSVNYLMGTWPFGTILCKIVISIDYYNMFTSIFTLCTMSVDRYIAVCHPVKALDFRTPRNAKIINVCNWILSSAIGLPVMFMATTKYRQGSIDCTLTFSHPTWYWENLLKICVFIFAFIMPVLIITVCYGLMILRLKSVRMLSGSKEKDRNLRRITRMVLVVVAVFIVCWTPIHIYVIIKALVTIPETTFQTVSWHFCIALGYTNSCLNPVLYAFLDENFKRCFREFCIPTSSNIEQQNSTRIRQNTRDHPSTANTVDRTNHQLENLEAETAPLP
T1 sequence (P41145 whole entry): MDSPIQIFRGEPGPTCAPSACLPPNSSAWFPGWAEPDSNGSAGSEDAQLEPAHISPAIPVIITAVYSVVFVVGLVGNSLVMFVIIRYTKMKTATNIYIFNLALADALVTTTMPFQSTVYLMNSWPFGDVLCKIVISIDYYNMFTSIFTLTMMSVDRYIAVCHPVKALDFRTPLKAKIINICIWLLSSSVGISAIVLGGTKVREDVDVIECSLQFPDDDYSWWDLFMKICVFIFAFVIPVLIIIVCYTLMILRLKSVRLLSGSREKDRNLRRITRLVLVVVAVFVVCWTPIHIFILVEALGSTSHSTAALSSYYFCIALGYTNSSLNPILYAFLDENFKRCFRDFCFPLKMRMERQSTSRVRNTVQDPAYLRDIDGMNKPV

SMILES | Ki [1] [nM] | Ki (Mu-type opioid receptor) [nM] | Ratio Ki (Homo sapiens) | Kb [2] [nM]
C=CCOc1ccc(C[C@H](NC(=O)[C@H](Cc2cccc(OCC=C)c2)NC(C)=O)C(=O)N[C@@H](Cc2ccccc2)C(=O)N[C@@H](CCCNC(=N)N)C(=O)N[C@@H](CC(C)C)C(=O)N[C@@H](CCCNC(=N)N)C(=O)N[C@@H](CCCNC(=N)N)C(=O)N[C@H](C)C(=O)N[C@@H](CCCNC(=N)N)C(=O)N2CCC[C@H]2C(=O)N[C@@H](CCCCN)C(N)=O)cc1 | 43.2 | 478 | 11 | –
C=CCOc1ccc(C[C@H](NC(=O)[C@H](Cc2ccccc2)NC(C)=O)C(=O)N[C@@H](Cc2ccc(OCC=C)cc2)C(=O)N[C@@H](CCCNC(=N)N)C(=O)N[C@@H](CC(C)C)C(=O)N[C@@H](CCCNC(=N)N)C(=O)N[C@@H](CCCNC(=N)N)C(=O)N[C@H](C)C(=O)N[C@@H](CCCNC(=N)N)C(=O)N2CCC[C@H]2C(=O)N[C@@H](CCCCN)C(N)=O)cc1 | 18.9 | 1220 | 65 | –
CC(=O)N[C@@H](Cc1ccccc1)C(=O)N[C@H]1Cc2cccc(c2)OC/C=C\COc2cccc(c2)C[C@@H](C(=O)N[C@@H](CCCNC(=N)N)C(=O)N[C@@H](CC(C)C)C(=O)N[C@@H](CCCNC(=N)N)C(=O)N[C@@H](CCCNC(=N)N)C(=O)N[C@H](C)C(=O)N[C@@H](CCCNC(=N)N)C(=O)N2CCC[C@H]2C(=O)N[C@@H](CCCCN)C(N)=O)NC1=O | 15.4 | 828 | 54 | –
CC(=O)N[C@@H](Cc1ccccc1)C(=O)N[C@H]1Cc2ccc(cc2)OC/C=C/COc2cccc(c2)C[C@@H](C(=O)N[C@@H](CCCNC(=N)N)C(=O)N[C@@H](CC(C)C)C(=O)N[C@@H](CCCNC(=N)N)C(=O)N[C@@H](CCCNC(=N)N)C(=O)N[C@H](C)C(=O)N[C@@H](CCCNC(=N)N)C(=O)N2CCC[C@H]2C(=O)N[C@@H](CCCCN)C(N)=O)NC1=O | 19.8 | 607 | 31 | –
CC(=O)N[C@H]1Cc2ccc(cc2)OC/C=C/COc2cccc(c2)C[C@@H](C(=O)N[C@@H](Cc2ccccc2)C(=O)N[C@@H](CCCNC(=N)N)C(=O)N[C@@H](CC(C)C)C(=O)N[C@@H](CCCNC(=N)N)C(=O)N[C@@H](CCCNC(=N)N)C(=O)N[C@H](C)C(=O)N[C@@H](CCCNC(=N)N)C(=O)N2CCC[C@H]2C(=O)N[C@@H](CCCCN)C(N)=O)NC1=O | 56.7 | 501 | 9 | –
C=CCOc1ccc(C[C@H](NC(=O)[C@H](Cc2cccc(OCC=C)c2)NC(=O)[C@H](Cc2ccccc2)NC(C)=O)C(=O)N[C@@H](CCCNC(=N)N)C(=O)N[C@@H](CC(C)C)C(=O)N[C@@H](CCCNC(=N)N)C(=O)N[C@@H](CCCNC(=N)N)C(=O)N[C@H](C)C(=O)N[C@@H](CCCNC(=N)N)C(=O)N2CCC[C@H]2C(=O)N[C@@H](CCCCN)C(N)=O)cc1 | 41.2 | 1330 | 32 | –
C=CCOc1cccc(C[C@H](NC(C)=O)C(=O)N[C@@H](Cc2cccc(OCC=C)c2)C(=O)N[C@@H](Cc2ccccc2)C(=O)N[C@@H](CCCNC(=N)N)C(=O)N[C@@H](CC(C)C)C(=O)N[C@@H](CCCNC(=N)N)C(=O)N[C@@H](CCCNC(=N)N)C(=O)N[C@H](C)C(=O)N[C@@H](CCCNC(=N)N)C(=O)N2CCC[C@H]2C(=O)N[C@@H](CCCCN)C(N)=O)c1 | 65.8 | 491 | 7 | –
CC(=O)N[C@H]1Cc2cccc(c2)OC/C=C/COc2cccc(c2)C[C@@H](C(=O)N[C@@H](Cc2ccccc2)C(=O)N[C@@H](CCCNC(=N)N)C(=O)N[C@@H](CC(C)C)C(=O)N[C@@H](CCCNC(=N)N)C(=O)N[C@@H](CCCNC(=N)N)C(=O)N[C@H](C)C(=O)N[C@@H](CCCNC(=N)N)C(=O)N2CCC[C@H]2C(=O)N[C@@H](CCCCN)C(N)=O)NC1=O | 68.2 | 1630 | 24 | –
CC(=O)N[C@@H](Cc1ccccc1)C(=O)N[C@H]1Cc2ccc(cc2)OC/C=C/COc2ccc(cc2)C[C@@H](C(=O)N[C@@H](CCCNC(=N)N)C(=O)N[C@@H](CC(C)C)C(=O)N[C@@H](CCCNC(=N)N)C(=O)N[C@@H](CCCNC(=N)N)C(=O)N[C@H](C)C(=O)N[C@@H](CCCNC(=N)N)C(=O)N2CCC[C@H]2C(=O)N[C@@H](CCCCN)C(N)=O)NC1=O | 14.7 | 1370 | 93 | 15
C=CCOc1ccc(C[C@H](NC(C)=O)C(=O)N[C@@H](Cc2ccc(OCC=C)cc2)C(=O)N[C@@H](Cc2ccccc2)C(=O)N[C@@H](CCCNC(=N)N)C(=O)N[C@@H](CC(C)C)C(=O)N[C@@H](CCCNC(=N)N)C(=O)N[C@@H](CCCNC(=N)N)C(=O)N[C@H](C)C(=O)N[C@@H](CCCNC(=N)N)C(=O)N2CCC[C@H]2C(=O)N[C@@H](CCCCN)C(N)=O)cc1 | 12.1 | 221 | 18 | –
CC(=O)N[C@@H](Cc1ccccc1)C(=O)N[C@@H](Cc1ccccc1)C(=O)N[C@@H](Cc1ccccc1)C(=O)N[C@@H](CCCNC(=N)N)C(=O)N[C@@H](CC(C)C)C(=O)N[C@@H](CCCNC(=N)N)C(=O)N[C@@H](CCCNC(=N)N)C(=O)N[C@H](C)C(=O)N[C@@H](CCCNC(=N)N)C(=O)N1CCC[C@H]1C(=O)N[C@@H](CCCCN)C(N)=O (Ac-FFFRLRR[dA]RPK-NH2) | – | 1740 | 174 | –
CC(=O)N[C@@H](Cc1ccccc1)C(=O)N[C@H]1Cc2cccc(c2)OC/C=C/COc2ccc(cc2)C[C@@H](C(=O)N[C@@H](CCCNC(=N)N)C(=O)N[C@@H](CC(C)C)C(=O)N[C@@H](CCCNC(=N)N)C(=O)N[C@@H](CCCNC(=N)N)C(=O)N[C@H](C)C(=O)N[C@@H](CCCNC(=N)N)C(=O)N2CCC[C@H]2C(=O)N[C@@H](CCCCN)C(N)=O)NC1=O | 39.2 | 1960 | 50 | –
C=CCOc1ccc(C[C@H](NC(C)=O)C(=O)N[C@@H](Cc2cccc(OCC=C)c2)C(=O)N[C@@H](Cc2ccccc2)C(=O)N[C@@H](CCCNC(=N)N)C(=O)N[C@@H](CC(C)C)C(=O)N[C@@H](CCCNC(=N)N)C(=O)N[C@@H](CCCNC(=N)N)C(=O)N[C@H](C)C(=O)N[C@@H](CCCNC(=N)N)C(=O)N2CCC[C@H]2C(=O)N[C@@H](CCCCN)C(N)=O)cc1 | 62.2 | 490 | 8 | –
C=CCOc1cccc(C[C@H](NC(=O)[C@H](Cc2ccccc2)NC(C)=O)C(=O)N[C@@H](Cc2cccc(OCC=C)c2)C(=O)N[C@@H](CCCNC(=N)N)C(=O)N[C@@H](CC(C)C)C(=O)N[C@@H](CCCNC(=N)N)C(=O)N[C@@H](CCCNC(=N)N)C(=O)N[C@H](C)C(=O)N[C@@H](CCCNC(=N)N)C(=O)N2CCC[C@H]2C(=O)N[C@@H](CCCCN)C(N)=O)c1 | 3.3 | 838 | 255 | –
CC(=O)N[C@H]1Cc2ccc(cc2)OC/C=C/COc2ccc(cc2)C[C@@H](C(=O)N[C@@H](Cc2ccccc2)C(=O)N[C@@H](CCCNC(=N)N)C(=O)N[C@@H](CC(C)C)C(=O)N[C@@H](CCCNC(=N)N)C(=O)N[C@@H](CCCNC(=N)N)C(=O)N[C@H](C)C(=O)N[C@@H](CCCNC(=N)N)C(=O)N2CCC[C@H]2C(=O)N[C@@H](CCCCN)C(N)=O)NC1=O | 11.7 | 1430 | 123 | 288
C=CCOc1ccc(C[C@H](NC(=O)[C@H](Cc2ccccc2)NC(C)=O)C(=O)N[C@@H](Cc2cccc(OCC=C)c2)C(=O)N[C@@H](CCCNC(=N)N)C(=O)N[C@@H](CC(C)C)C(=O)N[C@@H](CCCNC(=N)N)C(=O)N[C@@H](CCCNC(=N)N)C(=O)N[C@H](C)C(=O)N[C@@H](CCCNC(=N)N)C(=O)N2CCC[C@H]2C(=O)N[C@@H](CCCCN)C(N)=O)cc1 | 11.7 | 1380 | 118 | –
CC(=O)N[C@H]1Cc2cccc(c2)OC/C=C/COc2ccc(cc2)C[C@@H](C(=O)N[C@@H](Cc2ccccc2)C(=O)N[C@@H](CCCNC(=N)N)C(=O)N[C@@H](CC(C)C)C(=O)N[C@@H](CCCNC(=N)N)C(=O)N[C@@H](CCCNC(=N)N)C(=O)N[C@H](C)C(=O)N[C@@H](CCCNC(=N)N)C(=O)N2CCC[C@H]2C(=O)N[C@@H](CCCCN)C(N)=O)NC1=O | 29.2 | 657 | 22 | –
